Several values for one entry are separate records, joined by “and”; a condition that tells them apart may be missing. Equal values may be shown once.
How the values were obtained:
[1] = system: K562/Dox cells; test: MTT colorimetric assay, cytotoxicity on resistant K562/Dox; format: cell-based; conditions: MTT, K562/Dox; for IC50: Homo sapiens, K562, 48 h, 48 h, read-out: IC50 K562/Dox
Protocol: This colorimetric technique is based on the ability of viable cells to capture MTT and reduce it through the mitochondrial enzyme succinic dehydrogenase to its insoluble form, formazan crystals. The target compounds dissolved in DMSO (0.5% v/v as final concentration which was non-toxic to cells) at a maximum concentration of 50 µM were exposed to 5 × 10^4 cells distributed in a 96-well plate and incubated for 48 h. […] After this time, the plate was centrifuged at 2000 rpm for 10 min, and 100 µL of DMSO was added to dissolve the formazan crystals formed. Absorbance (Abs) was read at a wavelength of 595 nm in an iMark microplate reader (Bio-Rad, USA). The percentages of cytotoxicity were determined as compared to DMSO treated control cells, which were considered 100% viable as showing the same level of growth as the untreated cells.

[2] = system: K562 cells; test: MTT colorimetric assay, cytotoxicity on sensitive K562; format: cell-based; conditions: for IC50: Homo sapiens, K562, 48 h, MTT, 48 h, K562
Protocol: This colorimetric technique is based on the ability of viable cells to capture MTT and reduce it through the mitochondrial enzyme succinic dehydrogenase to its insoluble form, formazan crystals. […] After this time, the plate was centrifuged at 2000 rpm for 10 min, and 100 µL of DMSO was added to dissolve the formazan crystals formed. Absorbance (Abs) was read at a wavelength of 595 nm in an iMark microplate reader (Bio-Rad, USA).

[3] = target: P-gp (Homo sapiens, UniProt P08183); test: Rhodamine 123 intracellular accumulation assay in K562/Dox (flow cytometry); conditions: for Rho123 accumulation / anti-P-gp activity / MEC (minimum effective concentration): K562/Dox; for Rho123 accumulation / anti-P-gp activity: highest concentrations tested (50 or 6.25 µM); for FAR (fluorescence activity ratio): Rho123, K562/Dox; for MEC (minimum effective concentration): Rho123 accumulation
P-gp, sequence (P08183 whole entry): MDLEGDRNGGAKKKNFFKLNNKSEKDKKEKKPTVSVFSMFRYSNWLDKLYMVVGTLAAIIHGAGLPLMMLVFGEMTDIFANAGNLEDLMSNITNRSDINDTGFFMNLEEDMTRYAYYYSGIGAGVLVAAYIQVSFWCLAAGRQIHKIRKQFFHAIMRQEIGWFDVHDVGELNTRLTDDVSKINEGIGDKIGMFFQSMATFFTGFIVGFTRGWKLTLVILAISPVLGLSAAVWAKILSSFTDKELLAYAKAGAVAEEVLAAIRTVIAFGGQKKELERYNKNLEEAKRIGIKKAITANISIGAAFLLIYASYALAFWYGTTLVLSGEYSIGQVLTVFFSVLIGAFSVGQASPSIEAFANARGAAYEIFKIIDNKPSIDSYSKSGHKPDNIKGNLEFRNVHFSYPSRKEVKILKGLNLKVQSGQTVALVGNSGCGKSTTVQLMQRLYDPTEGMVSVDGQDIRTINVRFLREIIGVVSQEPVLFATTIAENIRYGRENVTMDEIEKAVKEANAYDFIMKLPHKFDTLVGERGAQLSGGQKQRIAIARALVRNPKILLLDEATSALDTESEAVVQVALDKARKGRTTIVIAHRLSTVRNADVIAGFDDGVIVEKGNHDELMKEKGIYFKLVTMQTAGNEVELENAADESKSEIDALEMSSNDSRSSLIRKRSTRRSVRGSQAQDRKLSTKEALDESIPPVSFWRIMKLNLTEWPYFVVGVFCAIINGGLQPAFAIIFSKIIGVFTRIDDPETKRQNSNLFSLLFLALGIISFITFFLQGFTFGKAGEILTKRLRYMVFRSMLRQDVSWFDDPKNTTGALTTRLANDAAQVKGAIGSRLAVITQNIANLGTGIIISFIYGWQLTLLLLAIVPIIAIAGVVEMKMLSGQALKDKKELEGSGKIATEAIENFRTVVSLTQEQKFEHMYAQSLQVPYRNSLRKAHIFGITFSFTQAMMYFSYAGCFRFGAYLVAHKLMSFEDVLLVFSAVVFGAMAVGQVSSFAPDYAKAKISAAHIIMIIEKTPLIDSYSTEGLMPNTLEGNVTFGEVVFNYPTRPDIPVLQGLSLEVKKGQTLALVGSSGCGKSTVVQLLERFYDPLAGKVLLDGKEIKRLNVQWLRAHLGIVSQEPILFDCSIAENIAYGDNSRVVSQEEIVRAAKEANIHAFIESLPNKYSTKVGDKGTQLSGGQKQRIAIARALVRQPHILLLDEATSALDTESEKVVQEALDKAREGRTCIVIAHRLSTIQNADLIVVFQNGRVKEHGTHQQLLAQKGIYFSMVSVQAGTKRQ

Structure (SMILES)	IC50 [1] [µM]	IC50 [2] [µM]	Rho123 accumulation / anti-P-gp activity [3]	FAR (fluorescence activity ratio) ([3]; 50 µM)	MEC (minimum effective concentration) [3]	FAR (fluorescence activity ratio) ([3]; 25 µM)	toxicity ([1]; 50 μM)	toxicity ([2]; 50 μM, K562, MTT)	FAR (fluorescence activity ratio) ([3]; 12.50 µM)	fold less active against P-gp than carbamate 6d ([3]; ratio of MEC values, Rho123)	FAR (fluorescence activity ratio) ([3]; 0.78 µM)	FAR (fluorescence activity ratio) ([3]; 1.56 µM)	FAR (fluorescence activity ratio) ([3]; 3.12 µM)	FAR (fluorescence activity ratio) ([3]; 6.25 µM)
C=C(C)[C@@H]1CC[C@]2(COC(=O)c3ccc(OC)cc3)CC[C@]3(C)[C@H](CC[C@@H]4[C@@]5(C)CC[C@H](O)C(C)(C)[C@@H]5CC[C@]43C)[C@@H]12 [Compound 3a]	> 50	> 50	did not induce statistically significant Rho123 accumulation	0.88 ± 0.02	> 50 µM									
C=C(C)[C@@H]1CC[C@]2(COC(=O)c3cc(OC)c(OC)c(OC)c3)CC[C@]3(C)[C@H](CC[C@@H]4[C@@]5(C)CC[C@H](O)C(C)(C)[C@@H]5CC[C@]43C)[C@@H]12 [Compound 3b]	> 50	> 50		1.06 ± 0.003	50 µM	0.94 ± 0.03								
C=C(C)[C@@H]1CC[C@]2(COC(=O)/C=C/c3ccc(OC)cc3OC)CC[C@]3(C)[C@H](CC[C@@H]4[C@@]5(C)CC[C@H](O)C(C)(C)[C@@H]5CC[C@]43C)[C@@H]12 [Compound 3c]	> 50	> 50	did not induce statistically significant Rho123 accumulation	0.74 ± 0.05	> 50 µM									
C=C(C)[C@@H]1CC[C@]2(COC(=O)/C=C/c3cc(OC)c(OC)c(OC)c3)CC[C@]3(C)[C@H](CC[C@@H]4[C@@]5(C)CC[C@H](O)C(C)(C)[C@@H]5CC[C@]43C)[C@@H]12 [Compound 3d]	> 50	> 50	did not induce statistically significant Rho123 accumulation	1.00 ± 0.06	> 50 µM									
C=C(C)[C@@H]1CC[C@]2(COC(=O)/C=C/c3cc(OC)c(OC)cc3OC)CC[C@]3(C)[C@H](CC[C@@H]4[C@@]5(C)CC[C@H](O)C(C)(C)[C@@H]5CC[C@]43C)[C@@H]12 [Compound 3e]	> 50	> 50	did not induce statistically significant Rho123 accumulation	0.78 ± 0.01	> 50 µM									
C=C(C)[C@@H]1CC[C@]2(C(=O)NCc3cc(OC)c(OC)c(OC)c3)CC[C@]3(C)[C@H](CC[C@@H]4[C@@]5(C)CC[C@H](O)C(C)(C)[C@@H]5CC[C@]43C)[C@@H]12 [Compound 4]	34.4 ± 2.59	19.7 ± 0.59			25 µM and 25.0 µM		more than 55%	more than 55%	1.04 ± 0.01	32				
C=C(C)[C@@H]1CC[C@]2(COC(=O)Nc3cc(OC)c(OC)c(OC)c3)CC[C@]3(C)[C@H](CC[C@@H]4[C@@]5(C)CC[C@H](O)C(C)(C)[C@@H]5CC[C@]43C)[C@@H]12 [Compound 6a]	> 50	> 50		1.62 ± 0.10	1.56 µM	1.33 ± 0.11			1.20 ± 0.08		0.98 ± 0.02	1.17 ± 0.02	1.12 ± 0.005	1.12 ± 0.02
C=C(C)[C@@H]1CC[C@]2(COC(=O)NCc3ccc(OC)cc3)CC[C@]3(C)[C@H](CC[C@@H]4[C@@]5(C)CC[C@H](O)C(C)(C)[C@@H]5CC[C@]43C)[C@@H]12 [Compound 6b]	> 50	> 50		1.60 ± 0.07	50 µM	0.90 ± 0.11								
C=C(C)[C@@H]1CC[C@]2(COC(=O)NCc3ccc(OC)c(OC)c3)CC[C@]3(C)[C@H](CC[C@@H]4[C@@]5(C)CC[C@H](O)C(C)(C)[C@@H]5CC[C@]43C)[C@@H]12 [Compound 6c]	> 50	> 50		1.97 ± 0.15	3.12 µM	1.65 ± 0.11			1.40 ± 0.06			1.00 ± 0.02	1.13 ± 0.03	1.23 ± 0.01

— paper PMC10762177, “Novel betulin derivatives as multidrug reversal agents targeting P-glycoprotein” (Scientific Reports, 2024)
